“Also recorded” adds a separate entry of the source.
Key:
[1] = test system: human SHs; assay: ABPP-SILAC analysis to identify SH targets of Compound 5; assay type: biochemical
Source text: Compound 5 was selected for analysis by mass spectrometry (MS)-based ABPP methods to assess the range of SHs targeted by N-Hydroxy bicyclic hydantoin carbamates.

[2] = test system: FP-sensitive SHs in the mouse brain membrane proteome; assay: Gel-based competitive ABPP in vitro, mouse brain membrane proteome, anti-targets; assay type: biochemical; conditions: for Anti-target(s) 0.1 μM: SHs with at least 50% inhibition at 0.1 μM compound; for Anti-target(s) 1 μM: SHs with at least 50% inhibition at 1 μM compound; for Anti-target(s) 10 μM: SHs with at least 50% inhibition at 10 μM compound; for Anti-target(s) 100 μM: SHs with at least 50% inhibition at 100 μM compound
Summary of the method: (§1)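 Mouse brain membrane proteome (1 mg/mL in DPBS) was treated with compound (0.1-100 μM) for 30 min at 37 °C, then labeled with FP-Rh (2 μM final, 30 min, 25 °C). Bands were resolved by SDS-PAGE and scanned in-gel, with inhibition taken from band optical density versus DMSO. Targets counted as active or anti-targets at ≥50% inhibition.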

[3] = target: T1, LYPLA2 (Mus musculus, UniProt Q9WTL7); assay: Gel-based competitive ABPP in vitro, mouse brain membrane proteome; assay type: biochemical; conditions: for inhibition at 0.1 µM: 0.1 μM compound, read-out: LYPLA2 % INH 0.1 μM; for inhibition at 0.1 µM / inhibition at 1 µM / inhibition at 10 µM / inhibition at 100 µM: 30 min, one replicate; for inhibition at 1 µM: 1 μM compound, read-out: LYPLA2 % INH 1 μM; for inhibition at 10 µM: 10 μM compound, read-out: LYPLA2 % INH 10 μM; for inhibition at 100 µM: 100 μM compound, read-out: LYPLA2 % INH 100 μM
T1 construct: a complex proteome endogenously expressing LYPLA1/2 was incubated with test compound; from tissue; host or cells: mouse brain, membrane fraction
T1 sequence (Q9WTL7 whole entry): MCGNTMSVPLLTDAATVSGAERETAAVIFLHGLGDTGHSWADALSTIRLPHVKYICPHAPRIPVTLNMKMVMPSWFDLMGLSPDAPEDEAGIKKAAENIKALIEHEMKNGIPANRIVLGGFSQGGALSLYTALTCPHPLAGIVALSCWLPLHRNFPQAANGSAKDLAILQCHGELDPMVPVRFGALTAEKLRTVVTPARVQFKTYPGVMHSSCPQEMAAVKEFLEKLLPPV
Summary of the method: as §1

[4] = target: T2, LYPLA1 (Mus musculus, UniProt P97823); assay: as above; assay type: biochemical; conditions: for inhibition at 0.1 µM: 0.1 μM compound, read-out: LYPLA1 % INH 0.1 μM; for inhibition at 0.1 µM / inhibition at 1 µM / inhibition at 10 µM / inhibition at 100 µM: 30 min, one replicate; for inhibition at 1 µM: 1 μM compound, read-out: LYPLA1 % INH 1 μM; for inhibition at 10 µM: 10 μM compound, read-out: LYPLA1 % INH 10 μM; for inhibition at 100 µM: 100 μM compound, read-out: LYPLA1 % INH 100 μM
T2 construct: a complex proteome endogenously expressing LYPLA1/2 was incubated with test compound; from tissue; host or cells: mouse brain, membrane fraction
T2 sequence (P97823 whole entry): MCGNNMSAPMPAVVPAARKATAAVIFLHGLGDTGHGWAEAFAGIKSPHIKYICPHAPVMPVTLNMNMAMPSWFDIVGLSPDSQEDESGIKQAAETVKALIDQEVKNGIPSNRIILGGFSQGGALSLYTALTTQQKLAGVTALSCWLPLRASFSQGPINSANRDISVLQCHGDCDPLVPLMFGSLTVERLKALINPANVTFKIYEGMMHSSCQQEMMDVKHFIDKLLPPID
Summary of the method: as §1

[5] = target: T3, mABHD3 (Mus musculus, UniProt Q91ZH7); assay: Gel-based competitive ABPP, recombinant enzyme in transfected HEK293T cell lysates; assay type: biochemical; conditions: transfected HEK293T lysates, read-out: mABHD3 in vitro potency (IC50)
T3 construct: expressed in transfected cells; host or cells: HEK293T, transient transfection, pCMV-Sport6; lysate used in vitro
T3 sequence (Q91ZH7 1-411): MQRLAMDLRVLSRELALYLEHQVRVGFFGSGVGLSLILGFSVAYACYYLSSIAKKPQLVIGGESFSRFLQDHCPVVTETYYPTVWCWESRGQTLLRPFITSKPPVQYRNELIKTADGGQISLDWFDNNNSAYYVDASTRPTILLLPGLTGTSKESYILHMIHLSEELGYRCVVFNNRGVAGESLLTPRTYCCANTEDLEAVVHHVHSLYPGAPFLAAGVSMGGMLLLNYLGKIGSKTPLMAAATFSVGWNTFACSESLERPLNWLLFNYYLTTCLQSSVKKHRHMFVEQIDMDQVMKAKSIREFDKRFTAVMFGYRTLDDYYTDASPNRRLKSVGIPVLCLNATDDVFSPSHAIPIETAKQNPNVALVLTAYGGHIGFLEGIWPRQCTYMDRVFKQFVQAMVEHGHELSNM
Method: (§2) HEK293T cells were seeded at 2×10^5 per well on 6 well plates and grown for 48 h. They were then transfected with mABHD3 (pCMV-Sport6), hABHD4 (pcDNA3.1/myc-his), hPPT1 (pCMV6-XL5), or hPPT1 S115A (pCMV6-XL5), by incubating 0.5 μg of DNA with 3 μL of PEI MAX (1 mg/mL, Polysciences, Inc) in serum-free DMEM for 30 min, then adding them to cells. After 48 h cells were either treated with compound in situ, as described above, or harvested for in vitro studies. The […] PPT1 mutation was introduced using QuikChange II Site Directed Mutagenesis Kit (Agilent) with the following primers: […]
Human ABHD3 and ABHD4 were recombinantly expressed by transient transfection in HEK293T cells, and the cell lysates were combined to provide a convenient assay for monitor inhibition of both enzymes by gel-based ABPP (see FIG. 8A).

[6] = target: T4, ABHD4 (Homo sapiens, UniProt Q8TB40); assay: as above; assay type: biochemical; set-up: myc-his; expressed in transfected cells; host or cells: HEK293T, transient transfection, pcDNA3.1/myc-his; lysate used in vitro; conditions: recombinant; for IC50: transfected HEK293T lysates, read-out: hABHD4 in vitro potency (IC50)
T4 sequence (Q8TB40 1-342): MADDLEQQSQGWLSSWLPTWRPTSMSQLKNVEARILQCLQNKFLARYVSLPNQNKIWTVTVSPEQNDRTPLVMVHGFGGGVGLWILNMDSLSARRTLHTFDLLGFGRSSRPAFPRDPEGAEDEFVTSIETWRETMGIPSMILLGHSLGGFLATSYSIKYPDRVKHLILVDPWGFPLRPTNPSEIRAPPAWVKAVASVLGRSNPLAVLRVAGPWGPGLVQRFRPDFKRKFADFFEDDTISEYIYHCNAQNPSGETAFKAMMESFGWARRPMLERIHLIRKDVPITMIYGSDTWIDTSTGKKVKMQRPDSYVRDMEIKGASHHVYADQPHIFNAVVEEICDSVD
Method: as §2
Human ABHD3 and ABHD4 were recombinantly expressed by transient transfection in HEK293T cells, and the cell lysates were combined to provide a convenient assay for monitor inhibition of both enzymes by gel-based ABPP (see FIG. 8A). […]

[7] = target: T5, human LYPLA2 (Homo sapiens, UniProt O95372); assay: IC50 by gel-based competitive ABPP in vitro, soluble HeLa cell proteome; assay type: biochemical; conditions: human LYPLA isoform, three replicates; Table 2 prints no unit, nM; read-out: LYPLA2 IC50
T5 construct: endogenous human LYPLA1/2 in a HeLa soluble proteome; endogenous in cells; host or cells: HeLa (soluble proteome in vitro; cultured cells in situ)
T5 sequence (O95372 whole entry, canonical isoform): as the sequence (Q9WTL7 whole entry) above, with N154A, T193S counted along it
Method: (§3) Assay Overview: The purpose of this assay was to determine IC50 values of powder samples of test compounds for enzyme of interest activity, and anti-targets in a complex proteomic lysate using a gel-based competitive ABPP assay. In this assay, a complex proteome was incubated with test compound followed by reaction with FP-Rh and SDS-PAGE analysis as described above.
(§4) Protocol Summary: Soluble HeLa cell proteome (50 μL reaction volume, 1 mg/mL in DPBS) or mouse brain membrane proteome (50 μL reaction volume, 1 mg/mL in DPBS) was treated with varying concentrations of test compound (1 μL of a 50× stock in DMSO) for 30 minutes at 37° C. FP-Rh (1 μL of 50× stock in DMSO) was added to a final concentration of 2 μM. The reaction was incubated for 30 minutes at 25° C., quenched with 16 μL 4×SDS-PAGE loading buffer (reducing), separated by SDS-PAGE and visualized by in-gel fluorescent scanning. The percentage activity remaining was determined by measuring the integrated optical density of the enzymes of interest, and anti-target bands relative to a DMSO-only (no compound) control. IC50 values were determined from dose-response curves from three replicates at each inhibitor concentration: 1, 10, 100, 1000, 10000 nM and 0.01, 0.1, 1, 10, 100, 1000, 10000, 50000, and 100000 nM.

[8] = target: T6, human LYPLA1 (Homo sapiens, UniProt O75608); assay: as above; assay type: biochemical; conditions: human LYPLA isoform, three replicates; Table 2 prints no unit, nM; read-out: LYPLA1 IC50
T6 construct: endogenous human LYPLA1/2 in a HeLa soluble proteome; endogenous in cells; host or cells: HeLa (soluble proteome in vitro; cultured cells in situ)
T6 sequence (O75608 whole entry, canonical isoform): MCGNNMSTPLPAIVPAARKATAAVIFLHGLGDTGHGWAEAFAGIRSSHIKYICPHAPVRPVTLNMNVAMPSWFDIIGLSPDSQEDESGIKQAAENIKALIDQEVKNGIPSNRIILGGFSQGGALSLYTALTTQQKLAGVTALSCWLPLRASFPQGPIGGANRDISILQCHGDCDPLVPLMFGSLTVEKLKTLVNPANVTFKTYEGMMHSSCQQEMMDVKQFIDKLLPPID
Method: as §3, §4

[9] = Analysis of cytotoxicity (WST-1); assay type: cell-based, human; conditions: human, HeLa cells; HeLa, 48 h, WST-1
Method: Assay Overview: The purpose of this assay was to determine cytotoxicity of powder samples of test compounds. In this assay, HeLa cells in either serum-free medium or medium containing fetal calf serum (FCS) were incubated with test compounds, followed by determination of cell viability. The assay utilized the WST-1 substrate, which was converted into colorimetric formazan dye by the metabolic activity of viable cells. The amount of formed formazan directly correlated to the number of metabolically active cells in the culture.
Protocol Summary: This assay was started by seeding HeLa cells in DMEM medium supplemented with 10% FCS and 1× Pen-Strep-Glutamine in a 96-well plate. Cells were incubated at 37° C. in a humidified incubator until 80% confluent (24 hours). Medium was removed, and 100 μL of fresh medium (serum-free or supplemented with 10% FCS), pre-mixed with DMSO or test compound, was added to each well. Cells were incubated for 48 hours at 37° C. in a humidified incubator and cell viability was determined by the WST-1 assay (Roche) according to manufacturer instructions. CC50 values were determined from dose-response curves from three replicates at each inhibitor concentration (10, 100, 1000, 10000, 100000 nM), compared to six replicates of cells treated with DMSO only.

[10] = 20 μM, mouse brain (mem) proteome

SMILES	inhibition at 0.1 µM [3] [%]	inhibition at 1 µM [3] [%]	inhibition at 10 µM [3] [%]	inhibition at 100 µM [3] [%]	inhibition at 0.1 µM [4] [%]	inhibition at 1 µM [4] [%]	inhibition at 10 µM [4] [%]	inhibition at 100 µM [4] [%]	IC50 [5] [nM]	IC50 [6] [nM]	Anti-target(s) 0.1 μM [2]	Anti-target(s) 1 μM [2]	Anti-target(s) 10 μM [2]	Anti-target(s) 100 μM [2]	further results
COc1ccc(N2CCN(C(=O)ON3C(=O)C4CN(Cc5cccc(Oc6ccccc6)c5)CCN4C3=O)CC2)cc1 (stereo not shown) [Compound 36, 1,3-dioxo-7-(3-phenoxybenzyl)hexahydroimidazo[1,5-a]pyrazin-2(3H)-yl 4-(4-methoxyphenyl)piperazine-1-carboxylate]									> 10000	200					preference ABHD4 over ABHD3 ([6]; combined HEK293T lysates, gel-based ABPP): preferentially inhibited ABHD4 over ABHD3
COC(=O)C1CCN(C(=O)ON2C(=O)C3CN(Cc4ccc(Oc5ccccc5)cc4)CCN3C2=O)CC1 (stereo not shown) [Compound 31, 1-(1,3-dioxo-7-(4-phenoxybenzyl)hexahydroimidazo[1,5-a]pyrazin-2(3H)-yl) 4-methyl piperidine-1,4-dicarboxylate]									> 10000	8200					LYPLA2 in vitro enzyme activity, % @ 20 μM [3, 10]: 0% @; LYPLA1 in vitro enzyme activity, % @ 20 μM [4, 10]: 0% @

The next lines start with results.

inhibition at 0.1 µM [3] [%]	inhibition at 1 µM [3] [%]	inhibition at 10 µM [3] [%]	inhibition at 100 µM [3] [%]	inhibition at 0.1 µM [4] [%]	inhibition at 1 µM [4] [%]	inhibition at 10 µM [4] [%]	inhibition at 100 µM [4] [%]	IC50 [5] [nM]	IC50 [6] [nM]	SMILES	Anti-target(s) 0.1 μM [2]	Anti-target(s) 1 μM [2]	Anti-target(s) 10 μM [2]	Anti-target(s) 100 μM [2]	further results
50	80	100	100	50	80	100	100			CC(C)(C)OC(=O)N1CCN2C(=O)N(OC(=O)N3CCC(CCc4ccc(Cl)cc4)CC3)C(=O)C2C1 (stereo not shown) [Compound 5, tert-butyl 2-(4-(4-chlorophenethyl)piperidine-1-carbonyloxy)-1,3-dioxohexahydroimidazo[1,5-a]pyrazine-7(1H)-carboxylate]	ABHD6	FAAH,; also recorded: ABHD6	FAAH,; also recorded: ABHD12,; also recorded: ABHD6	FAAH,; also recorded: ABHD12,; also recorded: MAGL,; also recorded: ABHD6	SHs inhibited by Compound 5 (three-fold or greater decrease in signal) [1]: ABHD6 and MGLL and ABHD4 and ABHD12 and PLA2G15 and PNPLA4
								> 10000	1000	O=C(ON1C(=O)C2CN(Cc3cccc(Oc4ccccc4)c3)CCN2C1=O)N1CCC(CCc2ccc(Cl)cc2)CC1 (stereo not shown) [Compound 35, 1,3-dioxo-7-(3-phenoxybenzyl)hexahydroimidazo[1,5-a]pyrazin-2(3H)-yl 4-(4-chlorophenethyl)piperidine-1-carboxylate]					
50	100	100	100	50	100	100	100			O=C(ON1C(=O)C2CN(C(=O)N3CCCCC3)CCN2C1=O)N1CCC(CCc2ccc(Cl)cc2)CC1 (stereo not shown) [Compound 2, 1,3-dioxo-7-(piperidine-1-carbonyl)hexahydroimidazo[1,5-a]pyrazin-2(3H)-yl 4-(4-chlorophenethyl)piperidine-1-carboxylate]	ABHD6	FAAH,; also recorded: ABHD6	FAAH,; also recorded: ABHD12,; also recorded: ABHD4,; also recorded: MAGL,; also recorded: ABHD6	FAAH,; also recorded: ABHD12,; also recorded: ABHD4,; also recorded: MAGL,; also recorded: ABHD6	IC50 [7]: 258 nM; IC50 [8]: 154 nM; CC50 at 48 h [9]: ≥ 10000 nM
